Measurements from paper PMC7400437, “Synthesis and Evaluation of the Antibacterial Activities of 13-Substituted Berberine Derivatives” (Antibiotics, 2020).
In brackets after ≈: the same amount, converted by molar mass.

Assays:
B. subtilis [1] = assay: Macromolecule synthesis inhibition assay by fluorescent microscopy (morphological changes); conditions: 4 × MIC, 2 h, 37 °C; for Observed Morphology: DNA, B. subtilis: DAPI
V. alginolyticus = assay: as above; conditions: 4 × MIC, 2 h, 37 °C; for Observed Morphology: DNA, V. alginolyticus: DAPI; for Observed Morphology: cell membrane, V. alginolyticus: FM4-64FX
C. albicans = assay: MIC, antifungal activity assay; type: cell-based, Candida albicans (DSM 10697); conditions: Candida albicans; Table 1 first screening; 35 °C, 24 h; read-out: Minimal Inhibitory Concentration (MIC) C. albicans
M. smegmatis = assay: microbe, parasite or virus in culture; type: cell-based, Mycobacterium smegmatis (mc2155, ATCC 700084); conditions: Mycolicibacterium smegmatis, 72 h, read-out: Minimal Inhibitory Concentration (MIC) M. smegmatis
E. coli = assay: MIC, antimicrobial activity assay; type: cell-based, Escherichia coli (ATCC 8739); conditions: Escherichia coli; Table 1 first screening; read-out: Minimal Inhibitory Concentration (MIC) E. coli
P. aeruginosa = assay: MIC, antimicrobial activity assay; type: cell-based, Pseudomonas aeruginosa (ATCC 9027); conditions: Pseudomonas aeruginosa; Table 1 first screening; read-out: Minimal Inhibitory Concentration (MIC) P. aeruginosa
S. aureus = assay: MIC, antimicrobial activity assay; type: cell-based, Staphylococcus aureus (ATCC 6538P); conditions: Staphylococcus aureus; Table 1 first screening; read-out: Minimal Inhibitory Concentration (MIC) S. aureus
B. subtilis [2] = assay: MIC, antimicrobial activity assay; type: cell-based, Bacillus subtilis (ATCC 6633); conditions: Bacillus subtilis; Table 1 first screening; read-out: Minimal Inhibitory Concentration (MIC) B. subtilis
[3] = tested on: HepG2 (human liver cells); assay: Cytotoxic assay on human cells (resazurin); type: cell-based; conditions: HepG2, 48 h, read-out: Inhibitory Concentration 50 (IC50) on cell viability, HEPG2
Experimental: (§1) The toxicity of berberine and berberine’s derivatives on human cells was evaluated using resazurin assay as previously described. Human cells used were BEAS (ATCC CRL-9609), Caco2 (ATCC HTB-37) and HepG2 (ATCC HB-8065) corresponding respectively to human airway epithelial cells, intestinal epithelial cells and liver cells. Cells were cultured in Dulbecco’s modified essential medium (DMEM) supplemented with 10% fetal bovine serum (FBS), 1% L-glutamine and 1% antibiotics (Thermo Fisher Scientific, Illkirch-Graffenstaden, France). Cells were routinely grown on 25 cm^2 flasks and maintained in a 5% CO2 incubator at 37 °C. For toxicity assay, cells were detached using trypsin–EDTA solution (Thermo Fisher Scientific), counted using Mallasez counting chamber and seeded into 96-well cell culture plates (Greiner bio-One, Dominique Dutscher, Brumath, France) at approximately 10,000 cells per well. The cells were left to grow for 48–72 h at 37 °C in a 5% CO2 incubator until they reached confluence. Media from wells was then aspirated and cells were treated with 100 µL of culture media containing increasing concentrations of berberine or berberine’s derivatives obtained by serial dilution (from 0 to 50 µM, 1:2 dilution), DMSO (0.5% DMSO final concentration) was used as negative control. After 48 h incubation at 37 °C in a 5% CO2 incubator, cell viability was evaluated using resazurin based in vitro toxicity assay kit (Sigma-Aldrich) following manufacturer’s instructions. Briefly, cell wells were emptied, and cells were treated with 100 µL of resazurin diluted 1:10 in sterile PBS containing calcium and magnesium (PBS^++, pH 7.4). After 4 h incubation at 37 °C, fluorescence intensity (excitation wavelength of 530 nm/emission wavelength of 590 nm) was measured using Synergy Mx microplate reader (Biotek). The fluorescence values were normalized by the controls (DMSO treated cells) and expressed as percent viability. The IC50 values of berberine and berberine’s derivatives on cell viability (i.e., the concentration of derivative causing a reduction of 50% of the cell viability) were calculated using GraphPad® Prism 7 software (San Diego, CA, USA). t-Test and two ways ANOVA analyses were used to address the significant differences between mean values with significance set at p < 0.05.

[4] = tested on: Caco2 (human intestinal epithelial cells); assay: Cytotoxic assay on human cells (resazurin); type: cell-based; conditions: Homo sapiens, Caco-2, 48 h, read-out: Inhibitory Concentration 50 (IC50) on cell viability, Caco2
Experimental: as §1

[5] = tested on: BEAS (human airway epithelial cells); assay: Cytotoxic assay on human cells (resazurin); type: cell-based; conditions: Epithelial cell, 48 h, means +/−SD, read-out: Inhibitory Concentration 50 (IC50) on cell viability, BEAS
Experimental: as §1

| Compound | Observed Morphology: cell elongation/enlargement, B. subtilis (B. subtilis [1]) | Observed Morphology: cells connected, B. subtilis (B. subtilis [1]) | Observed Morphology: DNA, B. subtilis (B. subtilis [1]) | Observed Morphology: cell elongation, V. alginolyticus (V. alginolyticus) | Observed Morphology: cells connected, V. alginolyticus (V. alginolyticus) | Observed Morphology: DNA, V. alginolyticus (V. alginolyticus) | Observed Morphology: cell membrane, V. alginolyticus (V. alginolyticus) | MIC (C. albicans) [µM] | MIC (M. smegmatis) [µM] | MIC (E. coli) [µM] | MIC (P. aeruginosa) [µM] | MIC (S. aureus) [µM] | MIC (B. subtilis [2]) [µM] | IC50 [3] [µM] | IC50 [4] [µM] | IC50 [5] [µM] | Observed Morphology: cell membrane, B. subtilis (B. subtilis [1]; FM4-64FX) |
| --- | --- | --- | --- | --- | --- | --- | --- | --- | --- | --- | --- | --- | --- | --- | --- | --- | --- |
| CC1(C)S[C@@H]2[C@H](NC(=O)[C@H](N)c3ccc(O)cc3)C(=O)N2[C@H]1C(=O)O [Amoxicillin] | 1.5 times compared to control | 2–4 cells connected | 2 condensed DNA in each cell | 1–3 times compared to control | 1–2 cells connected | Thick condensed and decondensed DNA spanning the cell | Cell membrane thickening |  |  |  |  |  |  |  |  |  |  |
| C[C@@H]1[C@H](O)[C@@H](C)/C=C/C=C/C=C/C=C/C=C/C=C/C=C/[C@H](O[C@@H]2O[C@H](C)[C@@H](O)[C@H](N)[C@@H]2O)C[C@@H]2O[C@](O)(C[C@@H](O)C[C@@H](O)[C@H](O)CC[C@@H](O)C[C@@H](O)CC(=O)O[C@H]1C)C[C@H](O)[C@H]2C(=O)O [Amphotericin B, reference compound] |  |  |  |  |  |  |  | 1.1 (≈ 1.02 µg/mL) |  |  |  |  |  |  |  |  |  |
| COc1ccc2c(c1OC)CN1CCc3cc4c(cc3C1=C2)OCO4 [Compound 1, Dihydroberberine] |  |  |  |  |  |  |  | 100 (≈ 33.7 µg/mL) | > 100 | > 100 | > 100 | 100 (≈ 33.7 µg/mL) | > 100 |  |  |  |  |
| COc1ccc2c(O)c3[n+](cc2c1OC)CCc1cc2c(cc1-3)OCO2 [Compound 2, 13-hydroxyberberine] |  |  |  |  |  |  |  | > 100 | 25 | > 100 | > 100 | 12.5 to 25 | 50 | > 50 | 34.2 ± 3.8 | > 50 |  |
| COc1ccc2c(c1OC)C(CC(C)=O)N1CCc3cc4c(cc3C1=C2)OCO4 (centres unmarked) [Compound 3, 8-acetonyl dihydroberberine] |  |  |  |  |  |  |  | 100 (≈ 39.3 µg/mL) | 100 (≈ 39.3 µg/mL) | > 100 | > 100 | 100 (≈ 39.3 µg/mL) | > 100 |  |  |  |  |
| COc1ccc2c(CC(=O)O)c3[n+](cc2c1OC)CCc1cc2c(cc1-3)OCO2 [Compound 5, 13-(Acetic Acid) Berberine] |  |  |  |  |  |  |  | > 100 | 50 | > 100 | > 100 | 100 | 100 |  |  |  |  |
| COc1ccc2c(Cc3ccc(C#N)cc3)c3[n+](cc2c1OC)CCc1cc2c(cc1-3)OCO2 [Compound 7, 13-(4-Cyanobenzyl)Berberine] |  |  |  |  |  |  |  | 100 | 100 | > 100 | > 100 | 100 | > 100 |  |  |  |  |
| C=Cc1ccc(Cc2c3[n+](cc4c(OC)c(OC)ccc24)CCc2cc4c(cc2-3)OCO4)cc1 [Compound 9, 13-(4-Ethenylbenzyl)Berberine] |  |  |  |  |  |  |  | 50 | 6.25 | > 100 | > 100 | 3.12 | 12.5 | > 50 | 24.8 ± 3.6 | 12.8 ± 1.6 |  |
| COc1ccc2c(Cc3ccc(S(N)(=O)=O)cc3)c3[n+](cc2c1OC)CCc1cc2c(cc1-3)OCO2 [Compound 10, 13-(4-Sulfamoylbenzyl)Berberine] |  |  |  |  |  |  |  | > 100 | > 100 | > 100 | > 100 | > 100 | > 100 |  |  |  |  |
| COc1ccc2c(Cc3ccc(CN)cc3)c3[n+](cc2c1OC)CCc1cc2c(cc1-3)OCO2 [Compound 11, 13-(4-Aminomethylbenzyl)Berberine] |  |  |  |  |  |  |  | 100 | 50 | > 100 | > 100 | 25 | 25 | > 50 | > 50 | > 50 |  |
| COc1ccc2c(Cc3ccc(C=O)cc3)c3[n+](cc2c1OC)CCc1cc2c(cc1-3)OCO2 [Compound 12, 13-(4-Formylbenzyl)Berberine] |  |  |  |  |  |  |  | > 100 | 100 | > 100 | > 100 | 100 | > 100 |  |  |  |  |
| COc1ccc2c(Cc3ccc4c(c3)OCO4)c3[n+](cc2c1OC)CCc1cc2c(cc1-3)OCO2 [Compound 13, 13-[(2H-1,3-Benzodioxol-5-yl)methyl]Berberine] |  |  |  |  |  |  |  | 50 | 12.5 | > 100 | > 100 | 6.25 to 12.5 | 25 | > 50 | 31.4 ± 3.8 | 16.9 ± 1.5 |  |
| COc1ccc2c(Cc3ccc(C=NO)cc3)c3[n+](cc2c1OC)CCc1cc2c(cc1-3)OCO2 [Compound 21, N-({4-[(Berberin-13-yl)methyl]phenyl}methylidene)hydroxylamine] |  |  |  |  |  |  |  | > 100 | 50 | > 100 | > 100 | 50 | 100 |  |  |  |  |
| COc1ccc2c(Cc3ccc(/C=C/C(=O)O)cc3)c3[n+](cc2c1OC)CCc1cc2c(cc1-3)OCO2 [Compound 22, (2E)-3-{4-[(Berberin-13-yl)methyl]phenyl}prop-2-enoic Acid] |  |  |  |  |  |  |  | > 100 | > 100 | > 100 | > 100 | > 100 | > 100 |  |  |  |  |
| CO/N=C1\CN(c2nc3c(cc2F)c(=O)c(C(=O)O)cn3C2CC2)CC1CN (centres unmarked) [Gemifloxacin, reference compound] |  | Single cells | Decondensed DNA | 3–9 times compared to control | 1–2 cells connected | Thick condensed DNA spanning the cell |  |  | 2 (≈ 0.779 µg/mL) | 0.06 (≈ 0.0234 µg/mL) | 0.25 (≈ 0.0973 µg/mL) | 0.06 (≈ 0.0234 µg/mL) | 0.02 (≈ 0.00779 µg/mL) |  |  |  |  |
| CO[C@H]1/C=C/O[C@@]2(C)Oc3c(C)c(O)c4c(O)c(c(/C=N/N5CCN(C)CC5)c(O)c4c3C2=O)NC(=O)/C(C)=C\C=C\[C@H](C)[C@H](O)[C@@H](C)[C@@H](O)[C@@H](C)[C@H](OC(C)=O)[C@@H]1C [Rifampicin] | 2.5 times compared to control | 2–3 cells connected | DNA condensed in one thick filament crossing the cells some with dot like shape | 2.5 times compared to control | 1–2 cells connected | Condensed DNA spanning the cell | Cell membrane pigmentation |  |  |  |  |  |  |  |  |  | Cell membrane thickening |
| CN(C)[C@@H]1C(O)=C(C(N)=O)C(=O)[C@@]2(O)C(O)=C3C(=O)c4c(O)cccc4[C@@](C)(O)[C@H]3C[C@@H]12 [Tetracycline] | 1.5–3 times compared to control | 1–3 cells connected | DNA condensed in one thin filament across the cells | 1.5–3 times compared to control | 1–3 cells connected | DNA condensed in one thin filament spiring the cells |  |  |  |  |  |  |  |  |  |  |  |
